This note sets out measurements from US20260097047A1, “Small molecule inhibitors of the ribosome biogenesis factor NVL2” (Board of Regents, The University of Texas System, priority 2023, published 2026).

Like-named read-outs stand apart in the source and are kept apart here.

Assay [1] deals with HCT116 cells. Briefly: Cell viability assay (CellTiter-Glo, 72 hours) in HCT116 human colorectal cancer cells. The class given is cell-based. Summed up:
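Ten-point IC50 came from an asymmetric five-parameter fit of luminescence corrected to vehicle wells. ATP content was measured by CellTiter-Glo 72 h after dosing at 37 °C. Cells were seeded at 2,000/well the day before, with 0.5% DMSO in all wells.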

Assay [2] addresses T1, NVL (Homo sapiens, UniProt O15381).
T1 sequence (O15381 1-856): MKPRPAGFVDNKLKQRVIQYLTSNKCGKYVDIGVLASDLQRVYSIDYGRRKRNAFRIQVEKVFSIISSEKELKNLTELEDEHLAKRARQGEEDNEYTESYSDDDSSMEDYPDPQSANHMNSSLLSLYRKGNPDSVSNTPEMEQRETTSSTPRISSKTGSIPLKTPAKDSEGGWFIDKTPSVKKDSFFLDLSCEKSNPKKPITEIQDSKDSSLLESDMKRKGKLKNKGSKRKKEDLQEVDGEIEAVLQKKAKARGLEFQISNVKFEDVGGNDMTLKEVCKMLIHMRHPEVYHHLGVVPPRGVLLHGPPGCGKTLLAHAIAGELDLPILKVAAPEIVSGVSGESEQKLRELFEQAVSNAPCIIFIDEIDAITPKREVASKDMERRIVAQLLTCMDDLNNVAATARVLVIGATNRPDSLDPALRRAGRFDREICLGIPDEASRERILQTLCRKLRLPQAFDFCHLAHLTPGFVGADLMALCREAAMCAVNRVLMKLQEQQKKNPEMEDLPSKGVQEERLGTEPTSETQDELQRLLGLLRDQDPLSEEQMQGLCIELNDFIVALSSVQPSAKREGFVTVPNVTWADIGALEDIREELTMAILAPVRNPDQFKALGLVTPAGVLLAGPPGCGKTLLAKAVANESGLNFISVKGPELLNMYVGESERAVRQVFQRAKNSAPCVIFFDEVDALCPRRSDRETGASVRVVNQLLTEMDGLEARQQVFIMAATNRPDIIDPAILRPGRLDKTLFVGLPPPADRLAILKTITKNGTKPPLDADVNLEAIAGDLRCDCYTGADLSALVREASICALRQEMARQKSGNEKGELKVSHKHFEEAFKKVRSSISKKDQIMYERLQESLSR
Briefly: Photo-crosslinking, affinity purification and probe displacement of NVL in cells. The class given is binding. Details: endogenous in cells. The source says: To test whether NVL2 mutations prevent compound binding, we synthesized MM0514, a crosslinker derivative of MM017. MM0514 contains an aryl azide, and thus is capable of covalently modifying target proteins following exposure to UV light. MM0514 also contains an alkyne group providing a “handle” to purify bound proteins using click chemistry. Critically, MM0514 retains on-target activity to HCT116 cells since NVL2^R403W mutant cells are resistant. We crosslinked either parental or NVL2^R403W HCT116 cells to MM0514 and analyzed NVL2 binding. […] To characterize the binding site, we solved the cryo-EM structure of NVL2 with MM017. MM017 binds to a single site in the asymmetric hexamer near the D subunit. Consistent with our binding data, the mutations map near the binding site, including R403, which is mutated to tryptophan in a resistant clone and predicted to prevent binding of MM017 or related analogs. The cryo-EM structure of NVL2 with MM017 provides further evidence of target identification and also a tool for optimizing a bioavailable compound.
To assess whether MM017 binds directly to NVL in cells, we used a MM017 crosslinker (Probe compound (2), Table A) that is UV-activatable and contains an alkyne that can be coupled to biotin for affinity purification. […]

Assay [3] concerns HCT116 NVL^P307T cells. Briefly: Cell viability in compound-resistant HCT116 NVL^P307T cells. The class given is cell-based, human. The source says:
Assessing the ability of NVL2 inhibitors to selectively kill WT versus NVL2^mut HCT116, block ribosome biogenesis and induce p53. We evaluate analogs in the colorectal cancer cell line HCT116 and already available compound-resistant clones. One clone has a mutation in the compound binding site (NVL2^R403W) and another clone (NVL2^P307T) has a mutation distant from the binding site that confers resistance through an unknown effect. Based on our results, analogs that kill HCT116 cells via NVL2 inhibition (on-target) have reduced potency in compound-resistant HCT116 mutant clones. Our analogs have been counter-screened against the NVL2 compound-resistant mutant clones with fold resistance range between 10-100 fold (most analogs 20-50 fold). This counter screen provides a strategy for identifying off-target toxins.
From whole exome sequencing, we identified variants that were acquired during IAA-induced mutagenesis with the hypothesis that genes related to resistance will be mutated in multiple clones. Two genes contained acquired variants in at least 3 of the 15 selected clones: TERT, mutated in 3 of 15 clones, and NVL, mutated in all 15 clones. […] In sum, 57 out of 59 unique clones harbored NVL mutations. The majority of mutations clustered within the D1 AAA+ ATPase domain and frequently affecting the same codons. To test whether these mutations are sufficient for MM017 resistance, we used CRISPR-Cas9 to knock-in two of the most resistant mutations (NVL^P307T, NVL^R403W) and a mutation with intermediate resistance (NVL^H304R). Transfection of cells with sgRNAs targeting these NVL residues in addition to a mutation-encoding repair template yielded an increased rate of resistance when compared to mock treatments.
HCT116 cells were transfected with TransIT-LT (Mirus #MIR2304) according to manufacturer's protocol with a guide RNA (either mock or NVL targeting) in the px330 vector (Addgene, #42230), and 10 nM single stranded deoxyoligonucleotide encoding a specific NVL mutation (see below for specific sequences). 72 hours after transfection, cells were selected by MM017 treatment. The resulting cells were evaluated by cresyl violet staining or collected and the relevant NVL mutations were analyzed by either amplicon or sanger sequencing.
Cell viability assay: In 96-well assay plates (Corning #2903), 2,000 cells were plated per well in 100 μL of medium and allowed to adhere overnight. The next day, compounds suspended in DMSO were dispensed to the assayed wells using a D300e Digital Dispenser (Tecan). All wells were normalized to 0.5% DMSO. 72 hours after incubation at 37° C. in 5% CO2, cell viability was assayed using an ATP-based luminescent viability assay, CellTiter-Glo (Promega #G8462). Substrate was mixed 1:1 with phosphate-buffered saline (PBS) supplemented with 1% Triton X-100, and 40 μL of this mixture was added to the assay wells. Plates were shaken on a microplate shaker for 10 minutes at room temperature. Luminescence (CellTiter-Glo) was recorded using a Synergy 2 microplate reader (BioTek). In Prism 9 software (GraphPad), ten-point dose response curves were plotted with baseline-correction to the vehicle control well, and IC50 values were calculated by curve fitting using asymmetric (five parameter), least squares fit.

In assay [4] the test system is p53 and p21. The assay can be described thus: p53 and p21 protein levels in HCT116 cells. The class given is cell-based, human. The source says:
Inhibition of 60S ribosome biogenesis is known to induce the stability and upregulation of p53, which could serve as a potential pharmacodynamics marker for MM017 in HCT116 cells. […] We used PRISM (Broad Institute) to evaluate the selectivity of MM017 across 902 cancer cell lines and then correlated this selectivity to 1,215 clinical and pre-clinical compounds in the PRISM database. […] These observations indicate that oxaliplatin and carmofur, like MM017, target ribosome biogenesis.

The mark [5] stands for this setting: Table 8, analogs of scaffold drawing 43 defined by R^2, R^3, X/Y, W, read-out: Activity (IC50 class, cell viability assay).
[6] abbreviates: Table 7, cell viability assay, CellTiter-Glo, 72 hours, scaffold drawing 42 with R^2, R^3, X/Y, Z, read-out: Activity.
Where [7] appears, read: Table 9, HCT116, 72 hours, read-out: Activity.

For the molecule `COCCN1C(=O)c2ccccc2Sc2cc(NC(=O)c3ccc(OC)cc3)ccc21` [compound 3], in assay [1] (Homo sapiens, HCT-116, read-out: IC50s (cellular activity of MM017 derivatives)), the IC50 amounted to 0.36 µM. Besides, the “displacement of MM017-probe from NVL” value in assay [2] (NVL-FLAG knock-in cell line, increasing doses) is reported as “more effectively displaced MM017-probe”.

Regarding `C#CCOCCN1C(=O)c2ccccc2Sc2cc(NC(=O)c3ccc(N=[N+]=[N-])cc3)ccc21` [Probe compound 2, 4-Azido-N-(11-oxo-10-(2-(prop-2-yn-1-yloxy)ethyl)-10, 11-dihydro-dibenzo[b,f][1,4]thiazepin-7-yl)benzamide], the IC50 in assay [1] (Homo sapiens, HCT-116, read-out: IC50, proliferation of HCT116 cells) turned out to be 0.47 µM. The “resistance of NVL^P307T cells” value in assay [3] was “comparatively resistant”. In assay [2] (UV light), the “NVL crosslinked to / purified with probe” value is “only detected in conditions that included both the MM017-probe and UV light”.

As to `Cc1cnc(CNC(=O)c2c(=O)c3ccc(N4CCCN(C)CC4)nc3n3c2sc2ccccc23)cn1` [CX-5461, reference compound], in assay [4], the “p53 levels in parental HCT116 cells” value was “dose-dependent increase in the levels of p53”.

For `CC#CCN1C(=O)c2ccccc2Sc2cc(NC3CC(OC)C3)cnc21` (centres unmarked) [Table 6: —CH2CCMe; 3-MeOcBu; CH/N; S], in assay [1] (Table 6, HCT116, 72 hours, read-out: Activity), the IC50 is under 0.5 µM.

As for `CC#CCN1C(=O)c2ccccc2Sc2cc(NC(=O)C3CCNC3)ccc21` (centres unmarked) [—CH2CCMe; pyrrolidin-3-yl; CH/CH; CH], the IC50 in assay [1] (setting [5]) lay in the range of 1 to 5 µM.

On to `COCCCC(=O)Nc1cnc2c(c1)Sc1ccccc1C(=O)N2CC#CC1CC1` [—CH2CC^cPr; (CH2)3OMe; CH/CH; N], for which the IC50 in assay [1] (setting [5]) is under 0.5 µM.

For the molecule `COCCN1C(=O)c2ccccc2Sc2cc(NC(=O)c3ccc(N=[N+]=[N-])cc3)ccc21` [—(CH2)2OMe; 4-N3Ph; CH/CH; S], the IC50 in assay [1] (setting [6]) was in the range of 1 to 5 µM.

As for `C#CCN1C(=O)c2ccccc2Sc2cc(Nc3nc(C)cnc3C)ccc21`, in assay [1] (Table 5, HCT116, 72 hours, read-out: Activity), the IC50 was under 0.5 µM.

With `C#CCOCCN1C(=O)c2ccccc2Sc2cc(NC(=O)Nc3ccccc3)ccc21` [Table 3: —(CH2)2OCH2CCH; Ph; CH/CH, 1-(11-Oxo-10-(2-(prop-2-yn-1-yloxy)ethyl)-10,11-dihydrodibenzo[b,f][1,4]thiazepin-7-yl)-3-phenylurea], the IC50 in assay [1] (Homo sapiens, HCT-116, Table 3, HCT116, 72 hours, read-out: Activity) was under 0.5 µM.

As to `CC#CCN1C(=O)c2ccccc2C(C)(O)c2cc(NC(=O)C3CC(COC)C3)ccc21` (centres unmarked) [Table 9: —CH2CCMe; 3-MeOCH2-cBu; CMeOH], the IC50 in assay [1] (setting [7]) was under 0.5 µM.

Take `CC#CCN1C(=O)c2ccccc2Sc2cc(NC(=S)N[C@H]3C[C@@H](OC)C3)cnc21` [Table 4: —CH2CCMe; cis-3-MeOcBu; N]: the IC50 in assay [1] (Table 4, HCT116, 72 hours, read-out: Activity) is under 0.5 µM.

For `O=C1c2ccccc2Sc2cc(NC(=O)[C@H]3C[C@@H](O)C3)cnc2N1CC#CC1CC1` [—CH2CC^cPr; cis-3-OH-cBu; CH/CH; N], in assay [1] (setting [5]), the IC50 was under 0.5 µM.

As for `CC#CCN1C(=O)c2ccc(Cl)cc2Sc2cc(NC(=O)CC3COC3)cnc21` [—CH2CCMe; (oxetan-3-yl)CH2; CCl/CH; N], in assay [1] (setting [5]), the IC50 was under 0.5 µM.

`CO[C@H]1C[C@H](C(=O)Nc2cnc3c(c2)Sc2ccccc2C(=O)N3CC#CC2CC2)C1` [—CH2CCcPr; trans-3-MeOcBu; CH/CH; N]: the IC50 in assay [1] (cell viability assay, Table 10 analogs of scaffold drawing 45 defined by R2, R3, X/Y, W, read-out: Activity) is under 0.5 µM.

`CC#CCN1C(=O)c2ccccc2C(C)c2cc(NC(=O)OCCOC)ccc21` (centres unmarked) [Table 9: —CH2CCMe; O(CH2)2OMe; CHMe]: the IC50 in assay [1] (setting [7]) was under 0.5 µM.

`COCCN1C(=O)c2ccccc2Sc2cc(NC(C)=O)ccc21` [—(CH2)2OMe; Me; CH/CH; S]: the IC50 in assay [1] (setting [6]) was in the range of 1 to 5 µM.

For the molecule `CC#CCN1C(=O)c2ccc(C#N)cc2Sc2cc(Nc3cccnn3)ccc21` [10-(But-2-yn-1-yl)-11-oxo-7-(pyridazin-3-ylamino)-10,11-dihydrodibenzo[b,f][1,4]thiazepine-3-carbonitrile], in assay [1] (Homo sapiens, HCT-116, Table 5, HCT116, 72 hours, read-out: Activity), the IC50 was 1 to 5 µM.
